Key:
[1] = target: T1, KRAS G12V (Homo sapiens, UniProt P01116, G12V); test: HTRF assay, KRAS G12V interaction with SOS1; type: biochemical; conditions: bins <500 nM / 500 nM to 1000 nM, read-out: Inhibition of KRAS G12V (IC50)
T1 construct: made in house; host or cells: E. coli, e.g. BL21 (DE3)
From the text: (§1) This assay can be also used to assess a selective inhibition or reduction of signaling output of a mutant Ras protein relative to a wildtype, or relative to a different mutant Ras protein. For example, the equilibrium interaction of wildtype KRAS or K-Ras mutant (e.g., wildtype or a mutant thereof) with SOS1 (e.g., hSOS1) can be assessed as a proxy or an indication for the ability of a subject compound to bind and inhibit Ras protein. The HTRF assay detects from (i) a fluorescence resonance energy transfer (FRET) donor (e.g., antiGST-Europium) that is bound to GST-tagged K-Ras mutant to (ii) a FRET acceptor (e.g., anti-6His-XL665) bound to a His-tagged hSOSL1.
(§2) The assay buffer can contain ~5 mM HEPES pH 7.4, ~150 mM NaCl, ~1 mM DTT, 0.05% BSA and 0.0025% (v/v) Igepal. A Ras working solution is prepared in an assay buffer containing typically a suitable amount of the protein construct (e.g., GST-tagged K-Ras mutant) and the FRET donor (e.g., antiGST-Eu(K) from Cisbio, France). A SOS1 working solution is prepared in an assay buffer containing suitable amount of the protein construct (e.g., His-hSOS1) and the FRET acceptor (e.g., anti-6His-XL665 from Cisbio, France). A suitable amount of the protein construct will depend on the range of activity or range of IC50 values being detected or under investigation. For detecting an IC50 within a range of 500 nM, the protein constructs of the same range of molarity can be utilized.
(§3) A fixed volume of DMSO with or without test compound is transferred into a 384-well plate. Ras working solution is added to all wells of the test plate. SOS1 working solution is added to all wells except for those that are subsequently filled with inhibitor control solution. Upon incubation for about 10 minutes or longer, the fluorescence is measured with a M1000Pro plate reader (Tecan) using HTRF detection (excitation 337 nm, emission 1: 620 nm, emission 2: 665 nm). Compounds are tested in duplicate at different concentrations (for example, 10 μM, 2.5 μM, 0.63 μM, 0.16 μM, 0.04 μM, 0.01 μM test compound). The ratiometric data (i.e., emission 2 divided by emission 1) is used to calculate IC50 values against Ras using GraphPad Prism (GraphPad software). Signaling output measured in terms of IC50 values can be obtained and a ratio of IC50 against one mutant relative to another mutant can be calculated. For instance, a selective reduction of K-Ras G12S signaling output can be evidenced by a ratio greater than one. In particular, a selective reduction of K-Ras G12S signaling relative to K-Ras WT signaling is evidenced if the ratio of IC50 (against K-Ras WT) to IC50 (against K-Ras G12S) is greater than 1.

[2] = target: T2, KRAS G12S (Homo sapiens, UniProt P01116, G12S); test: HTRF assay, KRAS G12S interaction with SOS1; type: biochemical; conditions: bins <500 nM / 500 nM to 1000 nM, read-out: Inhibition of KRAS G12S (IC50)
T2 construct: made in house; host or cells: E. coli, e.g. BL21 (DE3)
T2 sequence (P01116 1-188 isoform P01116-2 G12S): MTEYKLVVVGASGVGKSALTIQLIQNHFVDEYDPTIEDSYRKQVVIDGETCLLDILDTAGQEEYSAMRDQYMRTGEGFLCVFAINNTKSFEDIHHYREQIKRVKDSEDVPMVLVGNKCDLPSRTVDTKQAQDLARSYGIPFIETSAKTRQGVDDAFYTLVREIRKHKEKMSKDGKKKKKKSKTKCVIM
From the text: as §1, §2, §3

[3] = tested on: MiaPaca2 cells; test: Ras cellular assay, growth of cells with K-Ras G12C mutation; type: cell-based; conditions: Homo sapiens, MIA PaCa-2; cell proliferation assay; bins ≤500 nM / >500 nM; read-out: Inhibition of MiaPaca2 Cells (IC50)
Experimental: For example, this assay can be also used to assess selective growth inhibition of a mutant Ras protein relative to a wildtype or different mutant Ras protein.
MIA PaCa-2 (ATCC CRL-1420) and NCI-H1792 (ATCC CRL-5895) cell lines comprise a G12C mutation and can be used to assess Ras cellular signaling in vitro, e.g., in response to an inhibitor compound of the present disclosure. […] MIA PaCa-2 culture medium is prepared with DMEM/Ham's F12 (e.g., with stable glutamine, 10% FCS, and 2.5% horse serum. NCI-H1792 culture medium is prepared with RPMI 1640 (e.g., with stable glutamine) and 10% FCS.
On a first day (e.g., Day 1), Softagar (Select Agar, Invitrogen, 3% in ddH2O autoclaved) is boiled and tempered at 48° C. Appropriate culture medium (i.e., medium) is tempered to 37° C. Agar (3%) is diluted 1:5 in medium (=0.6%) and plated into 96 well plates (Corning, #3904), then incubated at room temperature for agar solidification. A 3% agar is diluted to 0.25% in medium (1:12 dilution) and tempered at 42° C. Cells are trypsinized, counted, and tempered at 37° C. The cells (e.g., MIA PaCa-2 at about 125-150 cells, NCI-H1792 at about 1000 cells) are resuspended in […] 0.25% Agar and plated, followed by incubation at room temperature for agar solidification. The wells are overlaid with […] of the medium. Sister wells in a separate plate are plated for time zero determination. All plates are incubated overnight at 37° C. and 5% CO2.
On a second day (e.g., Day 2), time zero values are measured. A […] volume of Cell Titer 96 Aqueous Solution (Promega) is added to each well and incubated in the dark at 37° C. and 5% CO2. Absorption can be measured at 490 nm and reference wavelength 660 nm. DMSO-prediluted test compounds are added to wells of interest, e.g., with HP Dispenser, to one or more desired concentrations (e.g., a final DMSO concentration of 0.3%).
On a tenth day (e.g., Day 10), absorption by wells treated with the test compounds and control wells are measured with, for example, Cell Titer 96 AQueous and analyzed in comparison to the time zero measurements. The IC50 values are determined using the four parameter fit. The resulting IC50 value is a measurement of the ability of the test compound to reduce cell growth of Ras-driven cells (e.g., tumor cell lines) in vitro and/or in vivo.

[4] = target: T3, KRAS WT (Homo sapiens, UniProt P01116); test: HTRF assay, wildtype KRAS interaction with SOS1; type: biochemical; conditions: bins <500 nM / 500 nM to 1000 nM, read-out: Inhibition of KRAS WT (IC50)
T3 construct: made in house; host or cells: E. coli, e.g. BL21 (DE3)
T3 sequence (P01116 1-188 isoform P01116-2): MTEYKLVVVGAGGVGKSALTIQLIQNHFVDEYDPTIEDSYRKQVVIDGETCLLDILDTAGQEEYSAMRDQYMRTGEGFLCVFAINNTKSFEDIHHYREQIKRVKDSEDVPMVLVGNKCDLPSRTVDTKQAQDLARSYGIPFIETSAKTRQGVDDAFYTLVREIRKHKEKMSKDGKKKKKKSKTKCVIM
From the text: as §1, §2, §3

[5] = target: T4, KRAS G12D (Homo sapiens, UniProt P01116, G12D); test: HTRF assay, KRAS G12D interaction with SOS1; type: biochemical; conditions: bins <500 nM / 500 nM to 1000 nM, read-out: Inhibition of KRAS G12D (IC50)
T4 construct: made in house; host or cells: E. coli, e.g. BL21 (DE3)
T4 sequence (P01116 1-188 isoform P01116-2 G12D): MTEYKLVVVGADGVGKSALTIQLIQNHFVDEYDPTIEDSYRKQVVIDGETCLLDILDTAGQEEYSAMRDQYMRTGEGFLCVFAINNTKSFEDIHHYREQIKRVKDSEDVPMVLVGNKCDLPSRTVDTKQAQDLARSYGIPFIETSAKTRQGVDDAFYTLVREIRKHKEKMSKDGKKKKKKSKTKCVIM
From the text: as §1, §2, §3

T1 sequence (P01116 1-188 isoform P01116-2 G12V): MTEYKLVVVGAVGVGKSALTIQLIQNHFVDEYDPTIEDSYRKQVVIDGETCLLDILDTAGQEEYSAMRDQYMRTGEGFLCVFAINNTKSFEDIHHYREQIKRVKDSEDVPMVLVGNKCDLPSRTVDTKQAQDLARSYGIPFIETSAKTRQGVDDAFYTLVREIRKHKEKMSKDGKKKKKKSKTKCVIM

Row | Compound | IC50 [1] | IC50 [2] | IC50 [3] | IC50 [4] | IC50 [5]
1 | CCN(c1nc(OC[C@@]23CCCN2C[C@H](F)C3)nc2c(F)c(-c3ccc(F)c4sc(N)c(C#N)c34)c(C(F)(F)F)cc12)[C@@H]1CCN(C(=O)n2ccc(Cl)n2)[C@@H]1C (atropisomer, axis not shown; (aS)) [Compound 193, (S)-2-amino-4-(4-(((2R,3R)-1-(3-chloro-1H-pyrazole-1-carbonyl)-2-methylpyrrolidin-3-yl)(ethyl)amino)-8-fluoro-2-(((2R,7aS)-2-fluorotetrahydro-1H-pyrrolizin-7a(5H)-yl)methoxy)-6-(trifluoromethyl)quinazolin-7-yl)-7-fluorobenzo[b]thiophene-3-carbonitrile] | < 500 nM | < 500 nM | ≤ 500 nM | < 500 nM | < 500 nM
2 | CN(c1nc(OC[C@@]23CCCN2C[C@H](F)C3)nc2c(F)c(-c3ccc(F)c4sc(N)c(C#N)c34)c(Cl)cc12)C1CN(C(=O)n2ccnc2)CC1F (mixture of isomers) [Compound 214, 2-amino-4-(6-chloro-8-fluoro-4-((4-fluoro-1-(1H-imidazole-1-carbonyl)pyrrolidin-3-yl)(methyl)amino)-2-(((2R,7aS)-2-fluorotetrahydro-1H-pyrrolizin-7a(5H)-yl)methoxy)quinazolin-7-yl)-7-fluorobenzo[b]thiophene-3-carbonitrile] | < 500 nM | < 500 nM | ≤ 500 nM | < 500 nM | < 500 nM
3 | Cc1cn(C(=O)N(C)CC2(F)CN(c3nc(OC[C@@]45CCCN4C[C@H](F)C5)nc4c(F)c(-c5ccc(F)c6sc(N)c(C#N)c56)c(Cl)cc34)C2)cn1 [Compound 109, N-((1-(7-(2-amino-3-cyano-7-fluorobenzo[b]thiophen-4-yl)-6-chloro-8-fluoro-2-(((2R,7aS)-2-fluorotetrahydro-1H-pyrrolizin-7a(5H)-yl)methoxy)quinazolin-4-yl)-3-fluoroazetidin-3-yl)methyl)-N,4-dimethyl-1H-imidazole-1-carboxamide] | < 500 nM | < 500 nM | ≤ 500 nM | < 500 nM | < 500 nM

Results, then the molecule that gave them:

Row | IC50 [1] | IC50 [2] | IC50 [3] | IC50 [4] | IC50 [5] | Compound
4 | < 500 nM | < 500 nM | ≤ 500 nM | < 500 nM | < 500 nM | C[C@@H]1[C@H](N(C)c2nc(OC[C@@]34CCCN3C[C@H](F)C4)nc3c(F)c(-c4ccc(F)c5sc(N)c(C#N)c45)c(Cl)cc23)CCN1C(=O)n1ccc(F)n1 [Compound 101, 2-amino-4-(6-chloro-8-fluoro-4-(((2R,3R)-1-(3-fluoro-1H-pyrazole-1-carbonyl)-2-methylpyrrolidin-3-yl)(methyl)amino)-2-(((2R,7aS)-2-fluorotetrahydro-1H-pyrrolizin-7a(5H)-yl)methoxy)quinazolin-7-yl)-7-fluorobenzo[b]thiophene-3-carbonitrile]
5 | < 500 nM | < 500 nM | ≤ 500 nM | < 500 nM | < 500 nM | CCN(c1nc(OC[C@@]23CCCN2C[C@H](F)C3)nc2c(F)c(-c3ccc(F)c4sc(N)c(C#N)c34)c(Cl)cc12)[C@@H]1CCN(C(=O)n2cc(C#N)nc2C)[C@@H]1C [Compound 102, 1-((2R,3R)-3-((7-(2-amino-3-cyano-7-fluorobenzo[b]thiophen-4-yl)-6-chloro-8-fluoro-2-(((2R,7aS)-2-fluorotetrahydro-1H-pyrrolizin-7a(5H)-yl)methoxy)quinazolin-4-yl)(ethyl)amino)-2-methylpyrrolidine-1-carbonyl)-2-methyl-1H-imidazole-4-carbonitrile]
6 | < 500 nM | < 500 nM | ≤ 500 nM | < 500 nM | < 500 nM | CCN(c1nc(OC[C@@]23CCCN2C[C@H](F)C3)nc2c(F)c(-c3ccc(F)c4sc(N)c(C#N)c34)c(Cl)cc12)[C@@H]1CCN(C(=O)n2cc(C)nc2C#N)[C@@H]1C [Compound 104, 1-((2R,3R)-3-((7-(2-amino-3-cyano-7-fluorobenzo[b]thiophen-4-yl)-6-chloro-8-fluoro-2-(((2R,7aS)-2-fluorotetrahydro-1H-pyrrolizin-7a(5H)-yl)methoxy)quinazolin-4-yl)(ethyl)amino)-2-methylpyrrolidine-1-carbonyl)-4-methyl-1H-imidazole-2-carbonitrile]
7 | < 500 nM | < 500 nM | ≤ 500 nM | < 500 nM | < 500 nM | CCN(c1nc(OC[C@@]23CCCN2C[C@H](F)C3)nc2c(F)c(-c3ccc(F)c4sc(N)c(C#N)c34)c(Cl)cc12)[C@@H]1CCN(C(=O)n2ccnc2)[C@@H]1C [Compound 106, 4-(4-(((2R,3R)-1-(1H-imidazole-1-carbonyl)-2-methylpyrrolidin-3-yl)(ethyl)amino)-6-chloro-8-fluoro-2-(((2R,7aS)-2-fluorotetrahydro-1H-pyrrolizin-7a(5H)-yl)methoxy)quinazolin-7-yl)-2-amino-7-fluorobenzo[b]thiophene-3-carbonitrile]
8 | < 500 nM | < 500 nM | ≤ 500 nM | < 500 nM | < 500 nM | CCN(c1nc(OC[C@@]23CCCN2C[C@H](F)C3)nc2c(F)c(-c3ccc(F)c4sc(N)c(C#N)c34)c(Cl)cc12)[C@@H]1CCN(C(=O)n2cnc(C)c2)[C@@H]1C [Compound 108, 2-amino-4-(6-chloro-4-(ethyl((2R,3R)-2-methyl-1-(4-methyl-1H-imidazole-1-carbonyl)pyrrolidin-3-yl)amino)-8-fluoro-2-(((2R,7aS)-2-fluorotetrahydro-1H-pyrrolizin-7a(5H)-yl)methoxy)quinazolin-7-yl)-7-fluorobenzo[b]thiophene-3-carbonitrile]
